Target: T1, hCdh1^WD40 (Homo sapiens, UniProt Q9UM11)
T1 construct: human Cdh1 (aa 165–484; pNH164); made in house; host or cells: Sf9 insect cells (baculovirus)
Assay: Fluorescence anisotropy, 10 nM Cy5-labeled peptide, hCdh1^WD40
Type: binding
Protocol: Activators were cloned into the pFastBac HT A vector, with an N-terminal 2xStrep-Tag II. For some experiments, we constructed vectors for expression of the WD40 domains of yeast Cdh1 (aa 241–550; pNH144), human Cdh1 (aa 165–484; pNH164), or human Cdc20 (aa 162–484; pNH188). For SMOR, a C-terminal GFP tag was added. Bacmid plasmids are listed in Supplementary Table 3. Plasmids were transformed into DH10Bac cells, and purified Bacmid was used to transfect Sf9 cells to generate P1 baculovirus, which was used to generate P2 virus. SF9 cells were infected with the P2 virus for 48 h. […]
Fluorescent degron peptides carried a C-terminal Cy5 label (CPC Scientific) and are listed in Supplementary Table 4. For anisotropy experiments, 10 nM fluorescent peptide was mixed with various concentrations of purified Cdh1 WD40 in wash buffer B at room temperature for 1 min, which we determined was sufficient for the binding reaction to reach equilibrium. Fluorescence was measured on a K2 Multifrequency Fluorometer at 25 °C. All Cy5-labeled peptides were excited with polarized light at 635 nm and emission was detected using a 700/75 nm bandpass filter (ET series, Chroma). […] Results were the same when peptide binding was measured in the buffer used in SMOR assays (buffer C, below). […]

T1 sequence (Q9UM11 165-484): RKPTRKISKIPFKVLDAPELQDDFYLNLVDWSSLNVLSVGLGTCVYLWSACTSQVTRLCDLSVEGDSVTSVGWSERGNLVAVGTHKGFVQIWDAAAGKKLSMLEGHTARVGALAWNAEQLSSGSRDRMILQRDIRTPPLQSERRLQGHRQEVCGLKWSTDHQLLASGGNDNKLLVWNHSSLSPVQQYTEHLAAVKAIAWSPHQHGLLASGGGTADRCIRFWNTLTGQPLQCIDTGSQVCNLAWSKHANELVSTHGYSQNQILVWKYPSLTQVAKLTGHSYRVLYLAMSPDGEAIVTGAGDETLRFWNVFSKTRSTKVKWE

Row | Substance | binding to human Cdh1 (in words)
1 | LIYVDKENGEPGTR-K(Cy5) [hSecurin KEN, Cy5-labeled KEN box peptide of human securin/Pttg1] | significant but low-affinity binding to Cdh1
2 | LPKATRKALGTVNRATEKSVK-K(Cy5) [AurKB D box, Cy5-labeled D box peptide of Aurora B kinase] | significant but low-affinity binding to Cdh1

— publication PMC8764033, “Single-molecule analysis of specificity and multivalency in binding of short linear substrate motifs to the APC/C” (Nature Communications, 2022)
